Usually IC50 stands for the concentration that gives 50% inhibition. Read a low IC50 as inhibition by little substance.

IC50 data for four compounds are collected here from ChEMBL document CHEMBL6127149, “Novel Papain-Like Protease Inhibitors for Treating Viral Infections, in Particular Coronavirus Infections” (ACS Med Chem Lett, 2024).

For this assay, the target named is Replicase polyprotein 1ab (Severe acute respiratory syndrome coronavirus 2, UniProt P0DTD1). As to the kind of experiment: Inhibition of SARS-CoV-2 PLpro using Z-RLRGG-AMC as substrate preincubated for 30 mins followed by substrate addition and measured after 60 mins by SpectraMax microplate reader analysis.

In the case of `Cn1cc(-c2cc([C@@H](N)NC(=O)c3ccccc3CCC(=O)NNC(=O)[C@H]3O[C@@H]3C(=O)O)c3ccccc3n2)cn1`, half-maximal inhibition (IC50) required 1 nM. To `COC(=O)[C@H]1O[C@@H]1C(=O)NNC(=O)CCc1ccccc1C(=O)N[C@H](N)c1cc(-c2cnn(C)c2)nc2ccccc12` belongs 2 nM.

Take `CCOC(=O)[C@H]1O[C@@H]1C(=O)NNC(=O)CCc1ccccc1C(=O)N[C@H](N)c1cc(-c2cnn(C)c2)nc2ccccc12`: half-maximal inhibition (IC50) was put at 2 nM. As for `CCOC(=O)[C@@H]1O[C@H]1C(=O)NNC(=O)CCc1ccccc1C(=O)N[C@H](N)c1cc(-c2cnn(C)c2)nc2ccccc12`, the IC50 amounted to 2 nM.
